Laboratory results reported in patent US8524917B2, “6-substituted indole-3-carboxylic acid amide compounds having sphingosine-1-phosphate (S1P) receptor antagonist biological activity” (Allergan, Inc., priority 2007, dated 2013).
Where two headings read alike, the source gives them in different places.

Biological target: human S1P3 receptor (Homo sapiens (Human), UniProt Q99500)
Experiment: Activation or block of activation of human S1P3 receptor, Ca+2 FLIPR assay
Type: cell-based
Procedure: Compounds were assessed for their ability to activate or block activation of the human S1P3 receptor in T24 cells stably expressing the human S1P3 receptor. Ten thousand cells/well were plated into 384-well poly-D-lysine coated plates one day prior to use. The growth media for the S1P3 receptor expressing cell line was McCoy's 5A medium supplemented with 10% charcoal-treated fetal bovine serum (FBS), 1% antibiotic-antimycotic and 400 μg/ml geneticin. On the day of the experiment, the cells were washed twice with Hank's Balanced Salt Solution supplemented with 20 mM HEPES (HBSS/Hepes buffer). […] Extracellular dye was removed by washing the cell plates four times prior to placing the plates in the FLIPR (Fluorometric Imaging Plate Reader, Molecular Devices). Ligands were diluted in HBSS/Hepes buffer and prepared in 384-well microplates. The positive control, Sphingosine-1-Phosphate (S1P), was diluted in HBSS/Hepes buffer with 4 mg/ml fatty acid free bovine serum albumin. The FLIPR transferred 12.5 μl from the ligand microplate to the cell plate and took fluorescent measurements for 75 seconds, taking readings every second, and then for 2.5 minutes, taking readings every 10 seconds. […] IC50 values were determined through a […] analysis using the Levenburg Marquardt algorithm.

[1] = T24 cells stably expressing the human S1P3 receptor, FLIPR Ca+2 response, 0.61 nM to 10,000 nM, read-out: S1P3 IC50
[2] = T24 cells stably expressing the human S1P3 receptor, value in brackets

Chain of human S1P3 receptor (Q99500 whole entry): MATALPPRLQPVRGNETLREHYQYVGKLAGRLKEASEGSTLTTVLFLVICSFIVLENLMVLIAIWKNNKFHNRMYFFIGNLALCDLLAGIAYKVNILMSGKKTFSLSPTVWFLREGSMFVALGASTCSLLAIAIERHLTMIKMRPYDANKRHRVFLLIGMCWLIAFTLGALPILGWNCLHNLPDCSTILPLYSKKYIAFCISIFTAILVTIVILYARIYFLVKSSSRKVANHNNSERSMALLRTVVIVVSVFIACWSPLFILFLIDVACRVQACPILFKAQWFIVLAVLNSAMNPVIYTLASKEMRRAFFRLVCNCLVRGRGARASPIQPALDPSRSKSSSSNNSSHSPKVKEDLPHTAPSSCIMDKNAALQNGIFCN

| Compound | IC50 [1] [nM] | S1P3 (% inh) [2] | other results |
| --- | --- | --- | --- |
| CC(C)Oc1ccc2c(C(=O)NCc3ccc(F)c(F)c3)c(CN3CCCC3)n(Cc3ccccn3)c2c1 [Compound 175, N-(3,4-Difluorobenzyl)-6-isopropoxy-1-(pyridin-2-ylmethyl)-2-(pyrrolidin-1-ylmethyl)-1H-indole-3-carboxamide] | 1100 | 100% | – |
| CC(C)c1c(C(=O)NCc2ccc(F)c(F)c2)c2ccc(OCc3ncco3)cc2n1Cc1ccccc1 [Compound 131, 1-Benzyl-N-(3,4-difluorobenzyl)-2-isopropyl-6-(1,3-oxazol-2-ylmethoxy)-1H-indole-3-carboxamide] | 890 | 96% | – |
| CC(C)c1c(C(=O)NCc2ccc(F)c(F)c2)c2ccc(NC3CCCC3)cc2n1Cc1ccccc1 [Compound 130, 1-Benzyl-6-(cyclopentylamino)-N-(3,4-difluorobenzyl)-2-isopropyl-1H-indole-3-carboxamide] | 44 | 99% | – |
| CC(C)c1c(C(=O)NCc2ccc(F)c(F)c2)c2ccc(N3CCOCC3)cc2n1Cc1ccccn1 [Compound 207, N-(3,4-Difluorobenzyl)-2-isopropyl-6-morpholino-1-(pyridin-2-ylmethyl)-1H-indole-3-carboxamide] | 130 | 97% | – |
| CC(C)c1c(C(=O)NCc2ccc(F)c(F)c2)c2ccc(OC3CCCO3)cc2n1Cc1ccccc1 (centres unmarked) [Compound 27, 1-Benzyl-N-(3,4-difluorobenzyl)-2-isopropyl-6-(tetrahydrofuran-2-yloxy)-1H-indole-3-carboxamide] | – | – | Kb: 11 nM; S1P3 (% inh): 6 nM (100) 11 nM %; IC50 (read-out: S1P3 IC50): 6 nM |
| CC(C)C(=O)Nc1ccc2c(C(=O)NCc3ccc(F)c(F)c3)c(C(C)C)n(Cc3ccccc3)c2c1 [Compound 127, 1-Benzyl-N-(3,4-difluorobenzyl)-6-isobutyramido-2-isopropyl-1H-indole-3-carboxamide] | 890 | 97% | – |
| CC(C)c1c(C(=O)NCc2ccc(F)c(F)c2)c2ccc(OC3CCOC3=O)cc2n1Cc1ccccc1 (centres unmarked) [Compound 20, 1-Benzyl-N-(3,4-difluorobenzyl)-2-isopropyl-6-(2-oxotetrahydrofuran-3-yloxy)-1H-indole-3-carboxamide] | 81 | 100% | – |
| CC(C)c1c(C(=O)NCc2ccc(F)c(F)c2)c2ccc(OC(=O)C(C)(C)C)cc2n1Cc1ccccc1 [Compound 22, 1-Benzyl-3-(3,4-difluorobenzylcarbamoyl)-2-isopropyl-1H-indol-6-yl Pivalate] | – | – | S1P3 (% inh): 4 nM (99) %; IC50 (read-out: S1P3 IC50): 4 nM |
| CCCCCCOc1ccc2c(C(=O)NCc3ccc(F)c(F)c3)c(C(C)C)n(Cc3ccccc3)c2c1 [Compound 14, 1-Benzyl-N-(3,4-difluorobenzyl)-6-(hexoxy)-2-isopropyl-1H-indole-3-carboxamide] | – | – | S1P3 (% inh): 3.1 μM (96) %; IC50 (read-out: S1P3 IC50): 3100 nM |
| CC(C)Oc1ccc2c(C(=O)NCc3ccc(F)c(F)c3)c(CO)n(Cc3ccccn3)c2c1 [Compound 106, N-(3,4-Difluorobenzyl)-2-(hydroxymethyl)-6-isopropoxy-1-(pyridin-2-ylmethyl)-1H-indole-3-carboxamide] | 689 | 96% | – |
| CC(C)COc1ccc2c(C(=O)NCc3cncc(F)c3)c(C(C)C)n(Cc3ccccn3)c2c1 [Compound 149, N-((5-Fluoropyridin-3-yl)methyl)-6-isobutoxy-2-isopropyl-1-(pyridin-2-ylmethyl)-1H-indole-3-carboxamide] | 29 | 100% | – |
| CC(C)Oc1ccc2c(C(=O)NCc3ccc(F)c(F)c3)c(C=O)n(Cc3ccccn3)c2c1 [Compound 105, N-(3,4-Difluorobenzyl)-2-formyl-6-isopropoxy-1-(pyridin-2-ylmethyl)-1H-indole-3-carboxamide] | 485 | 98% | – |
| CC(C)c1c(C(=O)NCc2ccc(F)c(F)c2)c2ccc(OC3CCOCC3)cc2n1Cc1ccccc1 [Compound 133, 1-Benzyl-N-(3,4-difluorobenzyl)-2-isopropyl-6-(tetrahydro-2H-pyran-4-yloxy)-1H-indole-3-carboxamide] | – | – | S1P3 (% inh): 36 nM (99) %; IC50 (read-out: S1P3 IC50): 36 nM |
| CC(C)c1c(C(=O)NCc2ccc(F)c(F)c2)c2ccc(C(=O)N(C)C)cc2n1Cc1ccccc1 | 197 | 100% | – |
| CC(C)c1c(C(=O)NCc2cc(F)cc(F)c2)c2ccc(NC3CCCC3)cc2n1Cc1ccccc1 [Compound 191, 1-Benzyl-6-(cyclopentylamino)-N-(3,5-difluorobenzyl)-2-isopropyl-1H-indole-3-carboxamide] | 38 | 99% | – |
| CC(C)c1c(C(=O)NCc2ccc(F)c(F)c2)c2ccc(C(=O)N3CCCC3)cc2n1Cc1ccccc1 | – | 170 nM (100) % | IC50: 170 nM |
| CC(C)c1c(C(=O)NCc2ccc(F)c(F)c2)c2ccc(NC3CCCC3)cc2n1Cc1ccccn1 [Compound 183, 6-(Cyclopentylamino)-N-(3,4-difluorobenzyl)-2-isopropyl-1-(pyridin-2-ylmethyl)-1H-indole-3-carboxamide] | 152 | 100% | – |
| CC(C)c1c(C(=O)NCc2ccc(F)cc2)c2ccc(C3=N[C@@H](C)CO3)cc2n1Cc1ccccn1 [Compound 86, (S)—N-(4-Fluorobenzyl)-2-isopropyl-6-(4-methyl-4,5-dihydrooxazol-2-yl)-1-(pyridin-2-ylmethyl)-1H-indole-3-carboxamide] | 48 | 100% | – |
| CC(C)c1c(C(=O)NCc2ccc(F)c(F)c2)c2ccc(C(=O)O)cc2n1Cc1ccccc1 | > 10000 | 40% | – |
| CC(C)c1c(C(=O)NCc2ccc(F)c(F)c2)c2ccc(OC3CCCC3)cc2n1Cc1ncco1 [Compound 211, 6-(Cyclopentyloxy)-N-(3,4-difluorobenzyl)-2-isopropyl-1-(oxazol-2-ylmethyl)-1H-indole-3-carboxamide] | 10 | 100% | – |
| CC(C)c1c(C(=O)NCc2ccc(F)c(F)c2)c2ccc(C3=N[C@H](C)CO3)cc2n1Cc1ccccc1 [Compound 74, (R)-1-Benzyl-N-(3,4-difluorobenzyl)-2-isopropyl-6-(4-methyl-4,5-dihydrooxazol-2-yl)-1H-indole-3-carboxamide] | 49 | 99% | – |
| CC(C)Oc1ccc2c(C(=O)NCc3cccnc3)c(C(C)C)n(Cc3ccccn3)c2c1 | – | ND (98) % | – |
| CC(C)c1c(C(=O)NCc2ccc(F)c(F)c2)c2ccc(OC(=O)N(C)C)cc2n1Cc1ccccc1 [Compound 21, 1-benzyl-3-(3,4-difluorobenzylcarbamoyl)-2-isopropyl-1H-indol-6-yl Dimethylcarbamate] | 24 | 99% | – |
| CC[C@H]1COC(c2ccc3c(C(=O)NCc4cc(F)cc(F)c4)c(C(C)C)n(Cc4ccccn4)c3c2)=N1 [Compound 85, (S)—N-(3,5-Difluorobenzyl)-6-(4-ethyl-4,5-dihydrooxazol-2-yl)-2-isopropyl-1-(pyridin-2-ylmethyl)-1H-indole-3-carboxamide] | 18 | 100% | – |
| CC(C)c1c(C(=O)NCc2cc(F)cc(F)c2)c2ccc(C3=N[C@@H](C)CO3)cc2n1Cc1ccccn1 [Compound 84, (S)—N-(3,5-Difluorobenzyl)-2-isopropyl-6-(4-methyl-4,5-dihydrooxazol-2-yl)-1-(pyridin-2-ylmethyl)-1H-indole-3-carboxamide] | 40 | 89% | – |
